SMILES | melting point [°C]
O=C(N[C@H]1CC[C@H](CCN2CCC(c3cccc4c3CCO4)CC2)CC1)c1ccc(N2CCOCC2)cc1 | 247
O=S1CCOCC1c1cccnc1 (configuration not stated) | 74 to 76
COc1cc2c(cc1-c1ccc(F)cc1C)NC(=O)CC(c1cccc(-n3ccnc3)c1)=N2 | 225
NC(=O)COC(=O)c1ccc(O)cc1 | 250 to 255
COc1ccc(CS(=O)(=O)C(C)(Cc2ccccc2)C(=O)N(O)O)cc1 (configuration not stated) | 58 to 59
O=C1CC(=O)NC(c2cccc(Cl)c2)=N1 | 256 to 257
COC(=O)C[C@@](O)(CCc1ccc(O)cc1)C(C)C | 89 to 91
COc1cc(C(O)C#Cc2c(C)nc(N)nc2N)cc(OC)c1OC (configuration not stated) | 174 to 176
COC(=O)c1cc(OCc2cn(-c3ccc(C(F)(F)F)cn3)nc2C(C)C)nn1C | 114 to 115
COc1c(NC(=O)Nc2ccc(-c3ccc(CN4CCOCC4)nc3)c3ccccc23)cc(C(C)(C)C)cc1Nc1c(N(C)C)c(=O)c1=O | 176 to 179
CCC(=O)OCC1(COC(=O)CC)c2ccccc2-c2ccccc21 | 82 to 83
CC(C)(C)OC(=O)NCC(=O)N1[C@@H](C(=O)OC(C)(C)C)C[C@H](C(=O)O)[C@H]1c1ccccc1 (racemic) | 105
CCCCCCOc1ccc(C(=O)NC2CCC(C)(C)C2)cc1 (configuration not stated) | 82 to 83
CCN(CC)CCc1cccc(N2C(=O)N(c3ccc(Cl)cc3Cl)Cc3cnc(Nc4ccccc4)nc32)c1 | 186
CCCC1CCCN(C(=O)C2Cc3ccccc3N2c2ccc(=O)n(C)n2)C1 (configuration not stated) | 106 to 110
FC(F)(F)c1cccc(N2CCN(Cc3n[nH]c4ccccc34)CC2)c1 | 78 to 80
CCn1cc([C@]2(c3cccc(-c4cccnc4F)c3)N=C(N)N(C)C2=O)cc1C(C)=O | 109 to 111
O=c1c(-c2ccc(O)cc2)coc2ccccc12 | 237 to 238
Cc1c(-c2ccc(OCC3CC3)cc2)nc2n(Cc3c(F)cccc3F)cc(Br)c(=O)n12 | 230 to 231
Cc1cc2nccc(-c3cccnc3)n2n1 | 182 to 184
Cn1c(Cn2nc(CC(=O)O)c3ccccc3c2=O)nc2ccccc21 | 230
CCCCCCNC(=O)OC1CCN(C(=O)OCCCCCCNC(=O)Oc2ccc(Oc3ccccc3)cc2)CC1 | 84 to 86
CC(C)C(=O)N[C@@H](CS)C(=O)O | 103 to 104
CCOc1ccccc1C(=O)c1oc2ccc(Cl)cc2c1N | 114 to 115
Cc1cc(Nc2ccnc(Nc3ccc(S(=O)(=O)N(C)C4CCN(Cc5cncs5)CC4)cc3)n2)ccc1F | 196 to 197

SMILES | melting point [°C]
CCOC(=O)Nc1ccc2oc(Cc3ccccc3)cc2c1 | 95
O=C(O)C=CC(=O)Nc1n[nH]c2ccc(Br)cc12 | 172
Cc1ccc(N(Cc2ccccc2)c2ccccc2)cc1 | 85 to 86
Cc1c(Cl)cccc1S(=O)(=O)Nc1ccc2ncncc2c1 | > 270
CC(=O)Nc1ccc2c(-c3ccccc3)c([N+](=O)[O-])oc2c1 | 212 to 214
N#Cc1ccc(-c2c3c(cc4ccc(O)cc24)-c2ccc(O)cc2CO3)cc1 | > 250
Nc1cc(C(F)(F)C(F)(F)F)no1 | 86 to 87
CCCc1nc2c(N)nc3cc(OCCNS(C)(=O)=O)ccc3c2s1 | 148 to 151
CCCc1c(CSc2nnc(SCC(=O)O)s2)ccc(C(C)=O)c1O | 116 to 118
Cc1c(N2CCC(N)C2)c(F)cc2c(=O)c(C(=O)O)cn(C3COC3)c12 (configuration not stated) | > 230
COC(=O)c1ccc(-c2cc(CCNC(C)=O)c3cc(OC)ccc3c2)cc1 | 147 to 149
CSc1cc(OCCC[Si](C)(C)C)c(Cl)cc1NC=NC#N | 94 to 96
Cc1c(F)cc2[nH]c(=O)c(=O)[nH]c2c1[N+](=O)[O-] | 308 to 311
COc1c(Cl)ccc(-c2nc(C(=O)OC(C)C)cc(N)c2F)c1F | 177 to 179
CCOC(=O)c1ccc(NC(=O)N2CCn3c(c(C(N)=O)c(Cl)c3-c3ccccc3)C2)cc1 | 260 to 262
CC(C)(C)OC(=O)NCCc1ccc([N+](=O)[O-])cc1 | 94 to 95
Nc1nc(NCCc2cccc(O)c2)nc2nc(-c3ccco3)nn12 | 190 to 193
FC(F)c1nc2ccccc2n1-c1nc(Nc2cnccn2)nc(N2CCOCC2)n1 | 271 to 274
CCOc1cc(C(CC(=O)O)N2Cc3cccc(NC(C)=O)c3C2=O)ccc1OC(F)F (configuration not stated) | 105 to 107
CCCCCCCCCCCCCCCCCCC(=O)Nc1ccn(C2OC(CO)C(O)C2O)c(=O)n1 (configuration not stated) | 139 to 142
Cc1c(Cl)ccc([N+](=O)[O-])c1C#N | 97 to 98
N#CC1=C(Nc2ccc(Cl)cc2[N+](=O)[O-])CSC1 | 154 to 155
CC1=CC(c2ccc(C(F)(F)F)cc2)C2=C(CCCC2=O)N1 (configuration not stated) | 116 to 118
O=Cc1csc(NCc2ccccc2)n1 | 162 to 165
CC(C)(C#N)c1c(Cl)cc(-n2nc(C(=O)O)c(=O)[nH]c2=O)cc1Cl | 157

SMILES | melting point [°C]
CCCN(CCC)C(=O)n1cnc(S(=O)(=O)C(C)C)n1 | 61
Cc1ccc(N2C(=O)C3=C(CCCC3)C2=O)c2c1OC(CO)C2 (configuration not stated) | 177 to 179
O=C(O)CCCc1cc2nc(Cl)ccc2n1S(=O)(=O)c1cc(Cl)ccc1Cl | 86 to 89
COC(=O)CCS(=O)(=O)c1cc(C(C)(C)C)c(O)c(C(C)(C)C)c1 | 109 to 111
CCN(C)C(=O)Nc1c(C(=O)c2ccccc2)[nH]c2cc(Cl)ccc12 | 159 to 161
CN1C(=O)N(c2cc(Cl)cc(Cl)c2)C(=O)[C@]12CN(Cc1cc(C(=O)O)cs1)C[C@H]2c1ccc(C#N)cc1 (relative stereo) | 188
COc1ccc(CN2CCC(c3cn(Cc4ccoc4)c4cc(F)ccc34)CC2)cc1C(=O)O | 228 to 229
CC(C)C1(C)NC(c2ccc(CO)cn2)=NC1=O (configuration not stated) | 101 to 104
CC(O)(Cc1cncs1)c1ccc(Cl)cc1Cl (configuration not stated) | 164
Nc1ccccc1NC(=O)c1ccc(C(=O)Nc2cccc(Nc3nc(-c4cccnc4)cs3)c2)cn1 | 148 to 150
COC(=O)C(NC(CO)c1ccccc1)C1CC2CCC(C1)N2 (configuration not stated) | 124
Cc1ccc(Cl)c2sc(O)nc12 | 266
COc1cn(-c2ccc(OS(=O)(=O)C(F)(F)F)cc2F)nc(-c2ccnn2-c2ccccc2)c1=O | 108 to 110
O=C1c2ccccc2C(=O)N1C(Cc1ccccc1)C1CC(Cc2ccccc2)=NO1 (configuration not stated) | 134 to 136
CCc1cc2c(ccc(=O)n2Cc2ccc(C(=O)OC)cc2)c(CC)n1 | 128 to 130
CN(C)Cc1ccc(CSCCNC2=NS(=O)(=O)N=C2N2CCCC2)o1 | 151 to 152
CNC(=O)C(=NOC)c1ccccc1COc1ccc2c(c1)OCC2=NOC | 143 to 145
COC(=O)c1c(OC)ccc2ccccc12 | 175 to 176
COCCOCCOCCOCCOc1cc(NC(=O)OC(C)(C)C)c(NC(=O)CC(=O)c2cccc(C#N)c2)cc1C#Cc1ccccc1 | 135 to 136
Cn1c(C(F)(F)F)c(Cl)c(=O)n(-c2c(F)ccc3nc(Cl)sc23)c1=O | 81 to 83
O=C1NC(N2CCCCCC2)=N/C1=C\c1c[nH]c2ncc(-c3ccccc3)cc12 | 302
COc1ccc(C23CCCC2(c2ccc(OC)cc2)C3)cc1 (configuration not stated) | 92 to 93
COc1ccc(C(=O)Nc2ccccc2)c(CC2CCCCN2)c1 (configuration not stated) | 108 to 109
COc1cc(OC)cc(C(=O)NC(=O)Nc2ccc3c(c2)NC(=O)/C3=C\c2[nH]c(C)c(C(=O)O)c2C)c1 | > 300
Cc1cc(C)c([C@H](O)[C@@H](C#N)c2ccccc2)c(C)c1 (racemic) | 132

SMILES | melting point [°C]
COC(=O)c1c(Cl)cc(Cl)cc1NC(=O)CSc1ccc(NC(=O)Cc2cccc(Br)c2)cc1 | 177 to 180
COc1ccc([C@H]2CCCN2[S@@](=O)C(C)(C)C)cc1 | 61 to 63
OC(COc1ccc(Cl)cc1Cl)(Cn1cnnc1)Cn1cncn1 (configuration not stated) | 182
CCCCCC(=O)C=P(c1ccccc1)(c1ccccc1)c1ccccc1 | 54 to 56
O=[N+]([O-])c1ccc(Sc2ccc(C(F)(F)F)cc2)c2nonc12 | 134 to 138
CCCCCCCCCCCCc1nnn(C(C(=O)Nc2c(OC)cc(OC)cc2OC)C(C)C)n1 (configuration not stated) | 135 to 137
COc1ccc(C#Cc2ccc(OC)cc2)cc1 | 140 to 142
CCOCc1nc2c(N)nc3ccccc3c2n1NCCCNC(=O)NC(C)C | 174 to 177
CNC(=O)NS(=O)(=O)c1cc2c(cc1OC)OCC(NC(=O)c1cc(F)ccc1OC)C2 (configuration not stated) | 260
N#Cc1ccc2c(c1)C1OC1C1(CCCCC1)O2 (configuration not stated) | 222 to 225
C[C@H](NC(=O)c1c(C(=O)O)cccc1[N+](=O)[O-])C(=O)N1CCC[C@H]1C(=O)O | 134 to 137
COC(=O)c1ccc(Cc2cn(C)c3ccc(CCNC(=O)N(C)C)cc23)c(OC)c1 | 122 to 124
CC(C)(C)C(=O)c1c[nH]c2ncc(N3Cc4ccccc4C3=O)nc12 | 287 to 289
CC(=Cc1ccccc1Cl)C(O)(Cn1cncn1)c1ccc(Cl)cc1 (configuration not stated) | 141 to 143
Cc1c[nH]c(=O)c(NC(=O)c2ccccc2F)c1 | 230 to 232
COc1cccc2c1nc(C(F)F)n2-c1nc(N2CCOCC2)nc(N2CCC(NC(=O)CCl)CC2)n1 | 252 to 254
C=CCc1c2c(cc3c(=O)cc(C(=O)OCC)oc13)CCCC2 | 98 to 101
O=C(COc1ccccc1)NC1C(=O)N2C(C(=O)OCc3ccccc3)N=CSC12 (configuration not stated) | 142 to 143
COc1ccc(C(=O)c2ccccc2C=O)cc1 | 90 to 91
CN(C)CCCc1ccc2c(c1)CCCN2C(=O)c1ccc(-c2ccccc2)cc1 | 100 to 101
CCC1(c2ccccc2)CC(N2C(=O)c3ccccc3C2=O)C(=O)NC1=O (configuration not stated) | 174 to 177
CCCc1nc2c(N)nc3ccc(-c4cccc(S(C)(=O)=O)c4)cc3c2s1 | 252 to 255

— a melting point compilation (Tetko et al.; mined from patent text by program, amines drawn as free bases though some values may be those of a salt)
